Data set [1] concerns the target T1, mouse GLP-1 receptor (Mus musculus, UniProt O35659).
T1 construct: βTC6 cells which express GLP-1R endogenously; host or cells: βTC6 cells
T1 sequence (O35659 22-463): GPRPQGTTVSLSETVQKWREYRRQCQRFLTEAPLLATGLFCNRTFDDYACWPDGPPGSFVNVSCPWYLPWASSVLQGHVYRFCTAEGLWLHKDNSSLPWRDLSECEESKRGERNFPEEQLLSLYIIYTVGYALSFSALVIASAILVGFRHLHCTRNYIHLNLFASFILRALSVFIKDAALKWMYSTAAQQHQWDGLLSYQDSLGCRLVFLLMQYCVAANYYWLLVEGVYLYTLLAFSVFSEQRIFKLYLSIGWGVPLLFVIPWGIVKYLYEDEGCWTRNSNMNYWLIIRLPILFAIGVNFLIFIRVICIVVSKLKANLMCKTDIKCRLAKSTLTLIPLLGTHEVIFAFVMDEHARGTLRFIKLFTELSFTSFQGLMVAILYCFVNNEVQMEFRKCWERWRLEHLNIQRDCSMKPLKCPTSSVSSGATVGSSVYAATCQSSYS
Description: cAMP production in βTC6 cells expressing GLP-1R endogenously (Method C2). Type of data set: cell-based. The following applies: for loss in potency relative to 3 (fold): figures for 6-8 match the βTC6 EC50 values of Table S1; for Potency (%), Table S1: from EC50 in βTC6 cAMP assay, footnote: compare to GLP-1-NH2 (2); for EC50: read-out: EC50 (GLP-1R potency), Table S1.
Description: (§1)  HEK-293T cells (Multispan inc., lot#.DC1267-062017) were suspended in cell culture media
(§2) (DMEM 1X + GlutaMAX (Gibco 31966-021)) complemented with FBS 10% (Sigma Aldrich
(§3)  βTC6 cells were suspended in HBSS buffer (Invitrogen) complemented with 20 mM HEPES (pH
(§4) In vitro pharmacology on HEK-293T cells (EC50: Method C1)
(§5) cells (Multispan inc., lot#.DC1267-062017) was determined by measuring their effects on cAMP
(§6) production using the HTRF detection method (performed by UREkA SARL). The cells were distributed
(§7) in 384-well microplates at a density of 1.0x10^4 cells/well. Stock solutions of the test compounds or the
(§8) reference agonist were prepared at a concentration of 1 mM in DMSO. Then, compounds to be tested
(§9) were diluted in cell culture media and transferred to the plate containing the cells to reach final assay

The nature of data set [2]: mouse plasma degradation assay (Methods MP1-MP3). Format: in vitro ADME. The procedure:
The oligomer was then diluted 1/50 with a solution of plasma/PBS pH 7.4 (1/1) to afford a final concentration of 5μM and incubated at 37°C. […] (t = 0 min was determined using the reaction without plasma). The samples were frozen at -80°C before analysis. […] The supernatant was analyzed by LC-MS. The time course of oligomer degradation was determined by integrating the area of the peak in the extracted ion chromatogram. […] The oligomer was then diluted 1/50 with a solution of plasma/PBS pH 7.4 (1/1) to afford a final concentration of 5μM and incubated at 37°C. […] The oligomer was then diluted 1/50 with a solution of plasma/PBS pH 7.4 (1/1) to afford a final concentration of 5μM and incubated at 37°C. […] Animals. […] A standard chow diet (RM1 (E) 801492, SDS) and tap water were provided ad libitum. All animal protocols done by Physiogenex S.A.S were reviewed and approved by the local (Comité […] national ([…]

The target in data set [3] is GLP-1R (Homo sapiens, UniProt P43220). Description: cAMP production functional assay in HEK293 cells transfected with GLP-1R (Method C1). Format: cell-based. Set-up: host or cells: HEK-293T. As to conditions: for EC50: HEK-293T cells exogenously expressing human GLP-1R, cAMP by HTRF, 10 min at 37 °C, Method C1, mean, n = 3 (2: n = 6), read-out: EC50 (GLP-1R potency).
Chain of GLP-1R (P43220 24-463): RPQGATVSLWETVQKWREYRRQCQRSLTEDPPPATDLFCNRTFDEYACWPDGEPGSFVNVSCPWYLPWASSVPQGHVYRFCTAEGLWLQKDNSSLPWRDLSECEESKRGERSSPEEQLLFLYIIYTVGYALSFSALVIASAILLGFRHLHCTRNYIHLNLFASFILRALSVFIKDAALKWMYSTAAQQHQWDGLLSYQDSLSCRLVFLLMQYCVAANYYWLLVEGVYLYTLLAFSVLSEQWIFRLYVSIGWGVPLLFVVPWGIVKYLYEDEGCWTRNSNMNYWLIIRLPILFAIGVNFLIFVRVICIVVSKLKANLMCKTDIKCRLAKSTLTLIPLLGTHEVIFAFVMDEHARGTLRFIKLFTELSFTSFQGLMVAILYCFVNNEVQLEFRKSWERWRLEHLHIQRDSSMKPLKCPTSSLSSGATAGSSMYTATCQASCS
Description: as §1, §2, §3, §4, §5, §6, §7, §8, §9
Setting [4] is: mouse plasma diluted 1/1 with PBS, mouse plasma/PBS pH 7.4 (1/1), 5 µM, 37 °C, acetonitrile quench, LC-MS extracted ion chromatogram, MP1 for 2-8, MP2 for 9-11, MP3 for 12-14, mean, n = 3, read-out: Mouse plasma t1/2 (converted).

Structures are written as SMILES. Like-named read-outs stand apart in the source and are kept apart here.

As for `CC[C@H](C)[C@H](NC(=O)[C@H](Cc1ccccc1)NC(=O)[C@H](CCC(=O)O)NC(=O)[C@H](CCCCN)NC(=O)[C@H](C)NC(=O)[C@H](C)NC(=O)[C@H](CCC(N)=O)NC(=O)CNC(=O)[C@H](CCC(=O)O)NC(=O)[C@H](CC(C)C)NC(=O)[C@H](Cc1ccc(O)cc1)NC(=O)[C@H](CO)NC(=O)[C@H](CO)NC(=O)[C@@H](NC(=O)[C@H](CC(=O)O)NC(=O)[C@H](CO)NC(=O)[C@@H](NC(=O)[C@H](Cc1ccccc1)NC(=O)[C@@H](NC(=O)CNC(=O)[C@H](CCC(=O)O)NC(=O)NC[C@@H](NC(=O)[C@@H](N)Cc1c[nH]cn1)C(C)C)[C@@H](C)O)[C@@H](C)O)C(C)C)C(=O)N[C@@H](C)C(=O)N[C@@H](Cc1c[nH]c2ccccc12)C(=O)N[C@@H](CC(C)C)C(=O)N[C@H](C(=O)N[C@@H](CCCCN)C(=O)NCC(=O)N[C@@H](CCCNC(=N)N)C(=O)NCC(N)=O)C(C)C` [compound 8], in data set [1], the “loss in potency relative to 3 (fold)” value is given as more than 1000 fold; the “Potency (%), Table S1” value was less than 0.01%; the EC50 (in general, the concentration at which the effect is half-maximal) is more than 10000 nM. In addition, the half-life at 5 µM in data set [2] (setting [4]) was 18 min. In data set [3], the EC50 turned out to be 2.12 nM.

As to `CC[C@H](C)[C@H](NC(=O)[C@H](Cc1ccccc1)NC(=O)[C@H](CCC(=O)O)NC(=O)[C@H](CCCCN)NC(=O)[C@H](C)NC(=O)[C@H](C)NC(=O)[C@H](CCC(N)=O)NC(=O)CNC(=O)[C@H](CCC(=O)O)NC(=O)[C@H](CC(C)C)NC(=O)[C@H](Cc1ccc(O)cc1)NC(=O)[C@H](CO)NC(=O)[C@H](CO)NC(=O)[C@@H](NC(=O)[C@H](CC(=O)O)NC(=O)[C@H](CO)NC(=O)[C@@H](NC(=O)[C@H](Cc1ccccc1)NC(=O)[C@@H](NC(=O)CNC(=O)[C@H](CCC(=O)O)NC(=O)NCCNC(=O)[C@@H](N)Cc1c[nH]cn1)[C@@H](C)O)[C@@H](C)O)C(C)C)C(=O)N[C@@H](C)C(=O)N[C@@H](Cc1c[nH]c2ccccc12)C(=O)N[C@@H](CC(C)C)C(=O)N[C@H](C(=O)N[C@@H](CCCCN)C(=O)NCC(=O)N[C@@H](CCCNC(=N)N)C(=O)NCC(N)=O)C(C)C` [compound 7], in data set [1], the “loss in potency relative to 3 (fold)” value is 5 fold; the “Potency (%), Table S1” value is given as 13%; the EC50 worked out at 0.8 nM. Besides, in data set [2] (setting [4]), the half-life at 5 µM is 13.2 min. Moreover, the EC50 in data set [3] stood at 0.0053 nM. For the same compound, the “Potency (%), percentage of potency compared to GLP-1-NH2” value in data set [3] (from EC50 in HEK293 GLP-1R cAMP assay) stood at 59%.

On to `CC[C@H](C)[C@H](NC(=O)[C@H](Cc1ccccc1)NC(=O)[C@H](CCC(=O)O)NC(=O)[C@H](CCCCN)NC(=O)[C@H](C)NC(=O)[C@H](C)NC(=O)[C@H](CCC(N)=O)NC(=O)CNC(=O)[C@H](CCC(=O)O)NC(=O)[C@H](CC(C)C)NC(=O)[C@H](Cc1ccc(O)cc1)NC(=O)[C@H](CO)NC(=O)[C@H](CO)NC(=O)[C@@H](NC(=O)[C@H](CC(=O)O)NC(=O)[C@H](CO)NC(=O)[C@@H](NC(=O)[C@H](Cc1ccccc1)NC(=O)[C@@H](NC(=O)CNC(=O)[C@H](CCC(=O)O)NC(=O)NC[C@@H](NC(=O)[C@@H](N)Cc1c[nH]cn1)[C@@H](C)O)[C@@H](C)O)[C@@H](C)O)C(C)C)C(=O)N[C@@H](C)C(=O)N[C@@H](Cc1c[nH]c2ccccc12)C(=O)N[C@@H](CC(C)C)C(=O)N[C@H](C(=O)N[C@@H](CCCCN)C(=O)NCC(=O)N[C@@H](CCCNC(=N)N)C(=O)NCC(N)=O)C(C)C` [S10], for which, in data set [1], the “Potency (%), Table S1” value is given as 3% and the EC50 turned out to be 3.3 nM.

As to `CC[C@H](C)[C@H](NC(=O)[C@H](Cc1ccccc1)NC(=O)[C@H](CCC(=O)O)NC(=O)[C@H](CCCCN)NC(=O)[C@H](C)NC(=O)[C@H](C)NC(=O)[C@H](CCC(N)=O)NC(=O)CNC(=O)[C@H](CCC(=O)O)NC(=O)[C@H](CC(C)C)NC(=O)[C@H](Cc1ccc(O)cc1)NC(=O)[C@H](CO)NC(=O)[C@H](CO)NC(=O)[C@@H](NC(=O)[C@H](CC(=O)O)NC(=O)[C@H](CO)NC(=O)[C@@H](NC(=O)[C@H](Cc1ccccc1)NC(=O)[C@@H](NC(=O)CNC(=O)[C@H](CCC(=O)O)NC(=O)CC[C@H](C)NC(=O)[C@@H](N)Cc1c[nH]cn1)[C@@H](C)O)[C@@H](C)O)C(C)C)C(=O)N[C@@H](C)C(=O)N[C@@H](Cc1c[nH]c2ccccc12)C(=O)N[C@@H](CC(C)C)C(=O)N[C@H](C(=O)N[C@@H](CCCCN)C(=O)NCC(=O)N[C@@H](CCCNC(=N)N)C(=O)NCC(N)=O)C(C)C` [compound 4], the half-life at 5 µM in data set [2] (setting [4]) is 13.8 min.

Take `CC[C@H](C)[C@H](NC(=O)[C@H](Cc1ccccc1)NC(=O)[C@H](CCC(=O)O)NC(=O)[C@H](CCCCN)NC(=O)[C@H](C)NC(=O)[C@H](C)NC(=O)[C@H](CCC(N)=O)NC(=O)CNC(=O)[C@H](CCC(=O)O)NC(=O)[C@H](CC(C)C)NC(=O)[C@H](Cc1ccc(O)cc1)NC(=O)[C@H](CO)NC(=O)[C@H](CO)NC(=O)[C@@H](NC(=O)[C@H](CC(=O)O)NC(=O)[C@H](CO)NC(=O)[C@@H](NC(=O)[C@H](Cc1ccccc1)NC(=O)[C@@H](NC(=O)CNC(=O)[C@H](CCC(=O)O)NC(=O)NC[C@H](CO)NC(=O)[C@@H](N)Cc1c[nH]cn1)[C@@H](C)O)[C@@H](C)O)C(C)C)C(=O)N[C@@H](C)C(=O)N[C@@H](Cc1c[nH]c2ccccc12)C(=O)N[C@@H](CC(C)C)C(=O)N[C@H](C(=O)N[C@@H](CCCCN)C(=O)NCC(=O)N[C@@H](CCCNC(=N)N)C(=O)NCC(N)=O)C(C)C` [S1]: the “Potency (%), Table S1” value in data set [1] was 8%.

In the case of `CC[C@H](C)[C@H](NC(=O)[C@H](Cc1ccccc1)NC(=O)[C@H](CCC(=O)O)NC(=O)[C@H](CCCCN)NC(=O)[C@H](C)NC(=O)[C@H](C)NC(=O)[C@H](CCC(N)=O)NC(=O)CNC(=O)[C@H](CCC(=O)O)NC(=O)[C@H](CC(C)C)NC(=O)[C@H](Cc1ccc(O)cc1)NC(=O)[C@H](CO)NC(=O)[C@H](CO)NC(=O)[C@@H](NC(=O)[C@H](CC(=O)O)NC(=O)[C@H](CO)NC(=O)[C@@H](NC(=O)[C@H](Cc1ccccc1)NC(=O)[C@@H](NC(=O)CNC(=O)[C@H](CCC(=O)O)NC(=O)NC[C@H](CCC(=O)O)NC(=O)[C@@H](N)Cc1c[nH]cn1)[C@@H](C)O)[C@@H](C)O)C(C)C)C(=O)N[C@@H](C)C(=O)N[C@@H](Cc1c[nH]c2ccccc12)C(=O)N[C@@H](CC(C)C)C(=O)N[C@H](C(=O)N[C@@H](CCCCN)C(=O)NCC(=O)N[C@@H](CCCNC(=N)N)C(=O)NCC(N)=O)C(C)C` [S5], in data set [1], the “Potency (%), Table S1” value is less than 0.01% and the EC50 was more than 10000 nM.

Regarding `CC[C@H](C)[C@H](NC(=O)[C@H](Cc1ccccc1)NC(=O)[C@H](CCC(=O)O)NC(=O)[C@H](CCCCN)NC(=O)[C@H](C)NC(=O)[C@H](C)NC(=O)[C@H](CCC(N)=O)NC(=O)CNC(=O)[C@H](CCC(=O)O)NC(=O)[C@H](CC(C)C)NC(=O)[C@H](Cc1ccc(O)cc1)NC(=O)[C@H](CO)NC(=O)[C@H](CO)NC(=O)[C@@H](NC(=O)[C@H](CC(=O)O)NC(=O)[C@H](CO)NC(=O)[C@@H](NC(=O)[C@H](Cc1ccccc1)NC(=O)[C@@H](NC(=O)CNC(=O)[C@H](CCC(=O)O)NC(=O)[C@H](C)NC(=O)[C@@H](N)Cc1cnc[nH]1)[C@@H](C)O)[C@@H](C)O)C(C)C)C(=O)N[C@@H](C)C(=O)N[C@@H](Cc1c[nH]c2ccccc12)C(=O)N[C@@H](CC(C)C)C(=O)N[C@H](C(=O)N[C@@H](CCCCN)C(=O)NCC(=O)N[C@@H](CCCNC(=N)N)C(=O)NCC(N)=O)C(C)C` [compound 2, GLP-1-NH2, reference compound], the half-life at 5 µM in data set [2] (mouse, plasma, pH 7.4) was 8.4 min.

Consider `CC[C@H](C)[C@H](NC(=O)[C@H](Cc1ccccc1)NC(=O)[C@H](CCC(=O)O)NC(=O)[C@H](CCCCN)NC(=O)[C@H](C)NC(=O)[C@H](C)NC(=O)[C@H](CCC(N)=O)NC(=O)CNC(=O)[C@H](CCC(=O)O)NC(=O)[C@H](CC(C)C)NC(=O)[C@H](Cc1ccc(O)cc1)NC(=O)[C@H](CO)NC(=O)[C@H](CO)NC(=O)[C@@H](NC(=O)[C@H](CC(=O)O)NC(=O)[C@H](CO)NC(=O)[C@@H](NC(=O)[C@H](Cc1ccccc1)NC(=O)[C@@H](NC(=O)CNC(=O)[C@H](CCC(=O)O)NC(=O)OC[C@H](C)NC(=O)[C@@H](N)Cc1c[nH]cn1)[C@@H](C)O)[C@@H](C)O)C(C)C)C(=O)N[C@@H](C)C(=O)N[C@@H](Cc1c[nH]c2ccccc12)C(=O)N[C@@H](CC(C)C)C(=O)N[C@H](C(=O)N[C@@H](CCCCN)C(=O)NCC(=O)N[C@@H](CCCNC(=N)N)C(=O)NCC(N)=O)C(C)C` [compound 5], for which, in data set [1], the “Potency (%), Table S1” value is 13% and the EC50 amounted to 0.8 nM. The half-life at 5 µM in data set [2] (setting [4]) is 12.6 min.

The values are drawn from PMC6977461 (Chemical Science, 2019).
